Data from patent US20230094404A1, “METHOD FOR PREPARATION OF HETEROCYCLICAMINE DERIVATIVES” (Daewoong Pharmaceutical Co., Ltd., priority 2020, published 2023).

What was measured:
ITK = biological target: T1, ITK (Homo sapiens, UniProt Q08881); experiment: ADP-Glo ITK Kinase enzyme system inhibitory activity; type: biochemical; conditions: ADP-Glo kit (Promega), ATP 25 uM, duplicate; read-out: inhibitory activity against ITK (ITK IC50)
T1 construct: purchased Promega Corporation
T1 sequence (Q08881 1-620): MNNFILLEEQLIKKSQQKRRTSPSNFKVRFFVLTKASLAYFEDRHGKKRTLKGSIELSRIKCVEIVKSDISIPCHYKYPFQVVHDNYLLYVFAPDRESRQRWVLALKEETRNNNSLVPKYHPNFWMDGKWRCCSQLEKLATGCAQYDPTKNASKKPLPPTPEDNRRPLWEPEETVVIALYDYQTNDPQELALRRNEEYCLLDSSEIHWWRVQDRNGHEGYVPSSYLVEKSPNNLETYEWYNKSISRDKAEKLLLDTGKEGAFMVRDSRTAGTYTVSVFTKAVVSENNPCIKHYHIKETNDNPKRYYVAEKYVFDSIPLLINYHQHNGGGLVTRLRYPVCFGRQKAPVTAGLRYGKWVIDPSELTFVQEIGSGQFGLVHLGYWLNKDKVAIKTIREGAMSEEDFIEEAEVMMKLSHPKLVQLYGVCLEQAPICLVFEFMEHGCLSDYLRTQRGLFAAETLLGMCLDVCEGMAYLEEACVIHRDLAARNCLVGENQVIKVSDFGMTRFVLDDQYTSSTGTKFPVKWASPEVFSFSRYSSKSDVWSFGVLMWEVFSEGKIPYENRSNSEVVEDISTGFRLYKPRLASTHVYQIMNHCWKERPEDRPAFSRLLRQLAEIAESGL
Method: (§1) Inhibitory activities against BTK and ITK were measured for the compound represented by Chemical Formula 1 prepared in the above Examples as follows.
In addition, the inhibitory activity against ITK was evaluated using ‘ADP-GIo™+ITK Kinase enzyme system’ kit (Promega Corporation). In a white 96-well plate, 10 ? of ITK enzyme prepared so as to have a final concentration of 4 ng/ ? was mixed with 5 ? of compounds having a final concentration of 1 uM in the case of evaluating a single concentration of compound and a concentration of 1000, 200, 40, 8, 1.6 and 0.32 nM in the case of IC50 evaluation, and then reacted at room temperature for 15 minutes. To the plate on which reactions were completed, 5 ul of substrate and 5 ? of ATP prepared so as to have a final concentration of 25 uM were added and then allowed to react at 30° C. for 1 hour. All wells of the plate on which reactions were completed were treated with 25 ? of ADP-Glo™ reagent and then allowed to react at 30° C. for 40 minutes. […] For the plate on which all reactions were completed, luminescence was measured and the results were calculated. Evaluation was carried out in duplicate, and negative control and positive control were calculated depending on whether or not the enzyme was added without treatment of the compound. The IC50 was calculated based on the calculated values.

BTK = biological target: T2, BTK (Homo sapiens, UniProt Q06187); experiment: ADP-Glo BTK Kinase enzyme system inhibitory activity; type: biochemical; conditions: ADP-Glo kit (Promega), ATP 10 uM, duplicate; read-out: inhibitory activity against BTK (BTK IC50)
T2 construct: purchased Promega Corporation
T2 sequence (Q06187 whole entry): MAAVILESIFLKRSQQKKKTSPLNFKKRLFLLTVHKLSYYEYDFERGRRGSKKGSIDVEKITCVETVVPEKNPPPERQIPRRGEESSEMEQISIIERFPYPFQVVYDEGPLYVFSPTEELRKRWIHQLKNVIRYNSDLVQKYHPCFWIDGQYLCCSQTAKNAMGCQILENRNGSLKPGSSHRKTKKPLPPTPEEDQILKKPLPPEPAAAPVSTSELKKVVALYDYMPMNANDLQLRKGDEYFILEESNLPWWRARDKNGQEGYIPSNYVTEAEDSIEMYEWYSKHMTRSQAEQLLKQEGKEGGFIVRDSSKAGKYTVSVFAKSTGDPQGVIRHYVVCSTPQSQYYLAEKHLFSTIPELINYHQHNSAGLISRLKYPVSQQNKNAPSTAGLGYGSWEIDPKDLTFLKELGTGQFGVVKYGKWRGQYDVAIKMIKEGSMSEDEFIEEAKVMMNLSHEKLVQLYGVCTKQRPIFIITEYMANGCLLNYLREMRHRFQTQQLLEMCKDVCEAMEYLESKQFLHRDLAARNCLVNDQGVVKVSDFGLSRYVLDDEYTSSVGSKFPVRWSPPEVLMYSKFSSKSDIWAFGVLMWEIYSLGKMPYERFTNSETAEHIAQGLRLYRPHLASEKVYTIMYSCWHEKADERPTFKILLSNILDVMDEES
Method: as §1
The inhibitory activities against BTK were evaluated using ‘ADP-GIo™+BTK Kinase enzyme system’ kit (Promega Corporation). In a white 96-well plate, 10 ? of BTK enzyme prepared so as to have a final concentration of 10 ng/ ? was mixed with 5 ? of compounds having a final concentration of 1 uM in the case of evaluating a single concentration of compound and a concentration of 1000, 200, 40, 8, 1.6 and 0.32 nM in the case of IC50 evaluation, and then reacted at room temperature for 15 minutes. 5 ? of substrate and 5 ? of ATP prepared so as to have a final concentration of 10 uM were added to the plate on which reactions were completed, and then allowed to react at 30° C. for 1 hour. All wells of the plate on which reactions were completed were treated with 25 ? of ADP-Glo™ reagent and allowed to react at 30° C. for 40 minutes. […] For the plate on which all reactions were completed, luminescence was measured and the results were calculated. Evaluation was carried out in duplicate, and negative control and positive control were calculated depending on whether or not the enzyme was added without treatment of the compound. The IC50 was calculated based on the calculated values.

C=CC(=O)N1CCC[C@H](Nc2cc(CN3CCOCC3)cc(Nc3ncc(C)s3)n2)C1 [Chemical Formula 1, (S)-1-(3-((6-((5-methylthiazol-2-yl)amino)-4-(morpholinomethyl)pyridin-2-yl)amino)piperidin-1-yl)prop-2-en-1-one]
IC50 (ITK): 1 to 1.7 nM
IC50 (BTK): 0.4 to 1.4 nM
